Values of other authors in paper PMC8176454, “Synthesis and Assessment of Novel Probes for Imaging Tau Pathology in Transgenic Mouse and Rat Models” (ACS Chemical Neuroscience, 2021).

Tests used:
[1] = tested on: tau pathology in PS19 tau transgenic mice; set-up: method as in PMID 24050400; details: cited from earlier work
[2] = tested on: tau aggregates in P301S tau and GSK3-β X P301L tau (biGT) mice; set-up: method as in PMID 26912432; details: cited from earlier work

Structure (SMILES)	Binding to tau pathology in PS19 tau transgenic mice [1]	Binding to tau aggregates in two transgenic mouse models [2]
[11CH3]Nc1ccc(/C=C/C=C/c2nc3ccc(O)cc3s2)cn1 [[^11C]PBB3]	bind to tau pathology	
CNc1ccc(-c2ccc3cc(OCC(O)C[18F])ccc3n2)cc1 (centres unmarked) [[^18F]THK5117]		bound to tau aggregates
